US20220289715A1, “PESTICIDALLY ACTIVE PYRAZINE-AMIDE COMPOUNDS” (priority 2019, published 2022)

Columns and labels:
Type in all cases: in vivo
[1] = system: Plutella xylostella (Diamondback Moth); assay: Example B9: Plutella xylostella, artificial diet, 96-well; conditions: 216 h, application rate of 500 ppm, eggs/L1 larvae, 9 days after infestation
Procedure: Example B9: Plutella xylostella (Diamondback Moth)
96-well microtiter plates containing artificial diet were treated with aqueous test solutions, prepared from 10,000 ppm DMSO stock solutions, by a liquid handling robot. After drying, eggs (˜30 per well) were infested onto a netted lid which was suspended above the diet. The eggs hatch and L1 larvae move down to the diet. The samples were assessed for mortality 9 days after infestation.
The following compounds gave an effect of at least 80% mortality at an application rate of 500 ppm: […]

[2] = system: Diabrotica balteata (Corn Root Worm); assay: Example B1: Diabrotica balteata, spray on maize sprouts; conditions: 96 h, application rate of 200 ppm, L2 larvae, 4 days after infestation, read-out: control in at least one of the two categories (mortality or growth inhibition)
Procedure: Example B1: Diabrotica balteata (Corn Root Worm)
Maize sprouts placed onto an agar layer in 24-well microtiter plates were treated with aqueous test solutions prepared from 10,000 ppm DMSO stock solutions by spraying. After drying, the plates were infested with L2 larvae (6 to 10 per well). The samples were assessed for mortality and growth inhibition in comparison to untreated samples 4 days after infestation.
(§1) The following compounds gave an effect of at least 80% control in at least one of the two categories (mortality or growth inhibition) at an application rate of 200 ppm: […]

[3] = system: Plutella xylostella (Diamond Back Moth); assay: Example B4: Plutella xylostella, artificial diet, 24-well; conditions: 192 h, application rate of 200 ppm, eggs, 8 days after infestation, read-out: control in at least one of the two categories (mortality or growth inhibition)
Procedure: Example B4: Plutella xylostella (Diamond Back Moth)
24-well microtiter plates with artificial diet were treated with aqueous test solutions prepared from 10,000 ppm DMSO stock solutions by pipetting. After drying, Plutella eggs were pipetted through a plastic stencil onto a gel blotting paper and the plate was closed with it. The samples were assessed for mortality and growth inhibition in comparison to untreated samples 8 days after infestation.
as §1

[4] = system: Spodoptera littoralis (Egyptian Cotton Leaf Worm); assay: Example B6: Spodoptera littoralis, spray on cotton leaf discs; conditions: foliar, 72 h, application rate of 200 ppm, L1 larvae, 3 days after infestation, read-out: control in at least one of the three categories (mortality, anti-feedant effect, or growth inhibition)
Procedure: Example B6: Spodoptera littoralis (Egyptian Cotton Leaf Worm)
Cotton leaf discs were placed onto agar in 24-well microtiter plates and sprayed with aqueous test solutions prepared from 10,000 ppm DMSO stock solutions. After drying the leaf discs were infested with five L1 larvae. The samples were assessed for mortality, anti-feeding effect, and growth inhibition in comparison to untreated samples 3 days after infestation. Control of Spodoptera littoralis by a test sample is given when at least one of the categories mortality, anti-feedant effect, and growth inhibition is higher than the untreated sample.

[5] = system: Chilo suppressalis (Striped Rice Stemborer); assay: Example B3: Chilo suppressalis, artificial diet; conditions: 144 h, application rate of 200 ppm, L2 larvae, 6 days after infestation, read-out: control in at least one of the three categories (mortality, anti-feedant effect, or growth inhibition)
Procedure: Example B3: Chilo suppressalis (Striped Rice Stemborer)
24-well microtiter plates with artificial diet were treated with aqueous test solutions prepared from 10,000 ppm DMSO stock solutions by pipetting. After drying, the plates were infested with L2 larvae (6-8 per well). The samples were assessed for mortality, anti-feeding effect, and growth inhibition in comparison to untreated samples 6 days after infestation. Control of Chilo suppressalis by a test sample is given when at least one of the categories mortality, anti-feedant effect, and growth inhibition is higher than the untreated sample.

COc1cc(C(=O)NC(C)c2nccnc2-n2nccn2)cc(Cl)n1 (centres unmarked) [Compound P32, 2-chloro-6-methoxy-N-[1-[3-(triazol-2-yl)pyrazin-2-yl]ethyl]pyridine-4-carboxamide]
≥ 80%: mortality at 500 ppm [1]

CC(c1nccnc1-n1cncn1)N(CC1CC1)C(=O)c1cc(C(F)(F)F)cc(C(F)(F)F)c1 (centres unmarked) [Compound P48, N-(cyclopropylmethyl)-N-[1-[3-(1,2,4-triazol-1-yl)pyrazin-2-yl]ethyl]-3,5-bis(trifluoromethyl)benzamide]
≥ 80%: percent control (mortality or growth inhibition) at 200 ppm [2] | percent control (mortality or growth inhibition) at 200 ppm [3] | percent control (mortality, anti-feedant effect or growth inhibition) at 200 ppm [4] | mortality at 500 ppm [1]

Cc1cc(C)cc(C(=O)NC(C)c2nccnc2-n2nccn2)c1 (centres unmarked) [Compound P24, 3,5-dimethyl-N-[1-[3-(triazol-2-yl)pyrazin-2-yl]ethyl]benzamide]
≥ 80%: mortality at 500 ppm [1]

CO/N=C(\C)c1cnn(-c2nccnc2C(C)NC(=O)c2cc(C(F)(F)F)cc(C(F)(F)F)c2)n1 (centres unmarked) [Compound P54, N-[1-[3-[4-[(E)-N-methoxy-C-methyl-carbonimidoyl]triazol-2-yl]pyrazin-2-yl]ethyl]-3,5-bis(trifluoromethyl)benzamide]
≥ 80%: percent control (mortality or growth inhibition) at 200 ppm [2] | percent control (mortality or growth inhibition) at 200 ppm [3] | percent control (mortality, anti-feedant effect or growth inhibition) at 200 ppm [4]

CC(=O)c1cn(-c2nccnc2C(C)NC(=O)c2cc(C(F)(F)F)cc(C(F)(F)F)c2)nn1 (centres unmarked) [Compound P55, N-[1-[3-(4-acetyltriazol-1-yl)pyrazin-2-yl]ethyl]3,5-bis(trifluoromethyl)benzamide]
≥ 80%: percent control (mortality, anti-feedant effect or growth inhibition) at 200 ppm [5] | percent control (mortality or growth inhibition) at 200 ppm [3]

CC(NC(=O)c1cc(C2CC2)cc(C(F)(F)F)c1)c1nccnc1-n1nccn1 (centres unmarked) [Compound P15, 3-cyclopropyl-N-[1-[3-(triazol-2-yl)pyrazin-2-yl]ethyl]-5-(trifluoromethyl)benzamide]
≥ 80%: percent control (mortality or growth inhibition) at 200 ppm [2] | percent control (mortality, anti-feedant effect or growth inhibition) at 200 ppm [5] | percent control (mortality or growth inhibition) at 200 ppm [3] | percent control (mortality, anti-feedant effect or growth inhibition) at 200 ppm [4] | mortality at 500 ppm [1]

CC(NC(=O)c1cc(C(F)(F)F)cc(C(F)(F)F)c1)c1nccnc1-n1cccn1 (centres unmarked) [Compound P45]
≥ 80%: percent control (mortality or growth inhibition) at 200 ppm [2]

Cc1cnc(C(C)NC(=O)c2cc(C(F)(F)F)cc(C(F)(F)F)c2)c(-n2nccn2)n1 (centres unmarked) [Compound P18, N-[1-[5-methyl-3-(triazol-2-yl)pyrazin-2-yl]ethyl]-3,5-bis(trifluoromethyl)benzamide]
≥ 80%: percent control (mortality, anti-feedant effect or growth inhibition) at 200 ppm [5] | percent control (mortality or growth inhibition) at 200 ppm [3]

CC(NC(=O)c1cc(C2CC2(F)F)cc(C(F)(F)F)c1)c1nccnc1-n1nccn1 (centres unmarked) [Compound P7, 3-(2,2-difluorocyclopropyl)-N-[1-[3-(triazol-2-yl)pyrazin-2-yl]ethyl]-5-(trifluoromethyl)benzamide]
≥ 80%: percent control (mortality or growth inhibition) at 200 ppm [2] | percent control (mortality, anti-feedant effect or growth inhibition) at 200 ppm [5] | percent control (mortality or growth inhibition) at 200 ppm [3] | percent control (mortality, anti-feedant effect or growth inhibition) at 200 ppm [4] | mortality at 500 ppm [1]

CC(NC(=O)c1cc(C(F)(F)F)cc(C(F)(F)F)c1)c1nccnc1-n1cc(C#N)cn1 (centres unmarked) [Compound P47, N-[1-[3-(4-cyanopyrazol-1-yl)pyrazin-2-yl]ethyl]-3,5-bis(trifluoromethyl)benzamide]
≥ 80%: percent control (mortality or growth inhibition) at 200 ppm [2] | percent control (mortality, anti-feedant effect or growth inhibition) at 200 ppm [5] | percent control (mortality or growth inhibition) at 200 ppm [3] | percent control (mortality, anti-feedant effect or growth inhibition) at 200 ppm [4]

Cc1cn(-c2nccnc2C(C)NC(=O)c2cc(C(F)(F)F)cc(C(F)(F)F)c2)nn1 (centres unmarked) [Compound P41, N-[1-[3-(4-methyltriazol-1-yl)pyrazin-2-yl]ethyl]-3,5-bis(trifluoromethyl)benzamide]
≥ 80%: percent control (mortality, anti-feedant effect or growth inhibition) at 200 ppm [5] | percent control (mortality or growth inhibition) at 200 ppm [3] | percent control (mortality, anti-feedant effect or growth inhibition) at 200 ppm [4] | mortality at 500 ppm [1]

CC(NC(=O)c1cc(C(F)(F)F)cc(C(F)(F)F)c1)c1nccnc1-n1cc(C2CC2)nn1 (centres unmarked) [Compound P42, N-[1-[3-(4-cyclopropyltriazol-1-yl)pyrazin-2-yl]ethyl]-3,5-bis(trifluoromethyl)benzamide]
≥ 80%: percent control (mortality, anti-feedant effect or growth inhibition) at 200 ppm [5] | percent control (mortality or growth inhibition) at 200 ppm [3] | percent control (mortality, anti-feedant effect or growth inhibition) at 200 ppm [4] | mortality at 500 ppm [1]

CC(c1nccnc1-n1nccn1)N(CC1CC1)C(=O)c1cc(C(F)(F)F)cc(C(F)(F)F)c1 (centres unmarked) [Compound P50, N-(cyclopropylmethyl)-N-[1-[3-(triazol-2-yl)pyrazin-2-yl]ethyl]-3,5-bis(trifluoromethyl)benzamide]
≥ 80%: percent control (mortality or growth inhibition) at 200 ppm [2] | percent control (mortality or growth inhibition) at 200 ppm [3] | percent control (mortality, anti-feedant effect or growth inhibition) at 200 ppm [4] | mortality at 500 ppm [1]

CC(NC(=O)c1cc(OCC(F)(F)F)cc(C(F)(F)F)c1)c1nccnc1-n1nccn1 (centres unmarked) [Compound P8, N-[1-[3-(triazol-2-yl)pyrazin-2-yl]ethyl]-3-(2,2,2-trifluoroethoxy)-5-(trifluoromethyl)benzamide]
≥ 80%: percent control (mortality or growth inhibition) at 200 ppm [2] | percent control (mortality, anti-feedant effect or growth inhibition) at 200 ppm [5] | percent control (mortality or growth inhibition) at 200 ppm [3] | percent control (mortality, anti-feedant effect or growth inhibition) at 200 ppm [4]

Cc1cnn(-c2nccnc2C(C)NC(=O)c2cc(C(F)(F)F)cc(C(F)(F)F)c2)n1 (centres unmarked) [Compound P1, N-[1-[3-(4-methyltriazol-2-yl)pyrazin-2-yl]ethyl]-3,5-bis(trifluoromethyl)benzamide]
≥ 80%: percent control (mortality, anti-feedant effect or growth inhibition) at 200 ppm [5] | percent control (mortality or growth inhibition) at 200 ppm [3] | mortality at 500 ppm [1]

CC(NC(=O)c1cc(C(F)(F)F)cc(C(F)(F)F)c1)c1nccnc1-n1ncc(I)n1 (centres unmarked) [Compound P53, N-[1-[3-(4-iodotriazol-2-yl)pyrazin-2-yl]ethyl]-3,5-bis(trifluoromethyl)benzamide]
≥ 80%: percent control (mortality or growth inhibition) at 200 ppm [2] | percent control (mortality, anti-feedant effect or growth inhibition) at 200 ppm [5] | percent control (mortality or growth inhibition) at 200 ppm [3] | percent control (mortality, anti-feedant effect or growth inhibition) at 200 ppm [4]

CC(=O)c1cnn(-c2nccnc2C(C)NC(=O)c2cc(C(F)(F)F)cc(C(F)(F)F)c2)n1 (centres unmarked) [Compound P57, N-[1-[3-(4-acetyltriazol-2-yl)pyrazin-2-yl]ethyl]-3,5-bis(trifluoromethyl)benzamide]
≥ 80%: percent control (mortality, anti-feedant effect or growth inhibition) at 200 ppm [5] | percent control (mortality or growth inhibition) at 200 ppm [3]

CC(NC(=O)c1cc(C(F)(F)F)cc(C(F)(F)F)c1)c1nccnc1-n1nnc2ccccc21 (centres unmarked) [Compound P51, N-[1-[3-(benzotriazol-1-yl)pyrazin-2-yl]ethyl]-3,5-bis(trifluoromethyl)benzamide]
≥ 80%: percent control (mortality or growth inhibition) at 200 ppm [3] | mortality at 500 ppm [1]

CC(NC(=O)c1cc(C(F)(F)F)cc(C(F)(F)F)c1)c1nccnc1-n1ccnn1 (centres unmarked) [Compound P44, N-[1-[3-(triazol-1-yl)pyrazin-2-yl]ethyl]-3,5-bis(trifluoromethyl)benzamide]
≥ 80%: percent control (mortality or growth inhibition) at 200 ppm [2] | percent control (mortality, anti-feedant effect or growth inhibition) at 200 ppm [5] | percent control (mortality or growth inhibition) at 200 ppm [3] | percent control (mortality, anti-feedant effect or growth inhibition) at 200 ppm [4]

CC(NC(=O)c1cc(F)cc(Cl)c1)c1nccnc1-n1nccn1 (centres unmarked) [Compound P25, 3-chloro-5-fluoro-N-[1-[3-(triazol-2-yl)pyrazin-2-yl]ethyl]benzamide]
≥ 80%: percent control (mortality or growth inhibition) at 200 ppm [2] | percent control (mortality or growth inhibition) at 200 ppm [3] | mortality at 500 ppm [1]
